In PMC11345769, “(SiFA)SeFe: A Hydrophilic Silicon-Based Fluoride Acceptor Enabling Versatile Peptidic Radiohybrid Tracers” (Journal of medicinal chemistry, 2024):

Tests used:
[1] = stability of 18F-labeled model bioconjugates, lutetium labeling conditions; type: physicochemical; conditions: buffer, pH 5.5
Procedure: (§1) To a solution of 10 μL aqueous sodium acetate buffer (pH 5.5) and 80 μL 0.04 M HCl were added 10 μL of the respective ^18F-labeled (SiFA)SeFe-bioconjugate. The solution was kept at 90 °C and for each time point (0, 30, 60, 90, 120 min) 10 μL were analyzed via Radio-TLC. The half-life was calculated from the ratio between free fluorine-18 and labeled peptide.

[2] = stability of 18F-labeled model bioconjugates, reverse isotopic exchange; type: physicochemical; conditions: buffer, pH 6.5
Procedure: To 10 μL of the respective ^18F-labeled (SiFA)SeFe-bioconjugate, a solution of 10 μL 10 mM NaF (pH = 6.5) and 80 μL H2O was added. The solution was kept at RT and for each time point (0, 30, 60, 90, 120 min) 10 μL was analyzed via Radio-TLC. The half-life was calculated from the ratio between free fluorine-18 and labeled peptide.

[3] = stability of 18F-labeled model bioconjugates, physiological conditions; type: physicochemical; conditions: buffer, pH 7.4
Procedure: as §1, with “of 90” for “of 10”, “aqueous K2CO3” for “aqueous sodium acetate”, “(pH 7.4)” for “(pH 5.5) and 80 μL 0.04 M HCl”, “at 37” for “at 90”

human serum albumin = biological target: T1, human serum albumin (Homo sapiens, UniProt P02768); experiment: human serum albumin binding by HPAC; type: in vitro ADME; conditions: non-radiolabeled compounds, n=1
T1 construct: purchased Daicel, Tokio, Japan Chiralpak HSA column (50 × 3 mm, 5 μm, H13 h-2433)
Procedure: High performance affinity chromatography (HPAC) was used to determine representative values for HSA binding of the ligands and their references, since it can influence the distribution and pharmacokinetics of radiopharmaceuticals.[43],[44]
HSA binding studies were performed according to a previously published procedure, using RP-HPLC and HSA which is solid-phase fixed on a Chiralpak HSA column (50 × 3 mm, 5 μm, H13 h-2433, Daicel, Tokio, Japan).[51] A flow rate of 0.5 mL/min at RT was used. A freshly prepared 50 mM aqueous solution of NH4OAc (pH 6.9) was used as mobile phase A, and isopropanol (HPLC grade, VWR, Germany) was used as mobile phase B. A gradient of 100% A (0 to 3 min) followed by 80% A (3 to 40 min) was used for the experiments. Before the analysis of all compounds, the column was calibrated with nine reference substances having HSA binding known from the literature in the range of 13 to 99%.[51],[52] All compounds, were prepared in a 1/1 mixture (v/v) of isopropanol and a 50 mM aqueous solution of NH4OAc (pH 6.9) at a final concentration of 0.5 mg/mL. Nonlinear regression was performed using OriginPro 2016G software (North-ampton, United States).

[4] = stability in human serum (radio-RP-HPLC); type: in vitro ADME; conditions: 37 °C; for Intact tracer in human serum, 24 h: n=3; for remaining at 24 h, 25 MBq/mL: human, serum, n=3, read-out: Intact tracer in human serum, 24 h
Procedure: Stability studies in human serum were also performed by incubating the ^18F-labeled ligands [^18F][^natGa]Ga-(SiFA)-SeFe-rhTATE1, [^18F][^natGa]Ga-(SiFA)SeFe-rhTATE2, [^18F][^natLu]Lu-(SiFA)SeFe-rhTATE3 and [^18F][^natLu]Lu-(SiFA)BA-rhTATE3 (for 1 h), as well as the ^177Lu-labeled ligands [^177Lu]Lu-(SiFA)SeFe-rhTATE3 and [^177Lu]Lu-(SiFA)BA-rhTATE3 for 1 and 24 h at 37 °C (Figure 3D). Afterward, the samples were analyzed for the intact tracer by radio-RP-HPLC (see SI, Table S4).
5 MBq of the respective ^18F-/^177Lu-labeled compound was added to 200 μL of human serum (from a healthy volunteer) and incubated at 37 °C for 1 h. After the addition of 50 vol % of cold ethanol and 150 vol % of cold MeCN, centrifugation was performed at 13.000 rpm for 20 min. The supernatant was decanted and centrifuged at 13.000 rpm for 10 min in a centrifuge tube with a 0.45 μm cellulose acetate filter. […] of the remaining filtrate was injected into RP-HPLC and the number of intact radioligand was quantified.

[5] = lutetium labeling conditions, 18F-labeled, Radio-TLC, read-out: Half-life, pH 5.5, 90 °C (converted)
[6] = reverse isotopic exchange, 18F-labeled, Radio-TLC, read-out: Half-life, pH 6.5, 1 mM aq. NaF, RT
[7] = physiological conditions, 18F-labeled, Radio-TLC, read-out: Half-life, pH 7.4, 37 °C

T1 sequence (P02768 25-609): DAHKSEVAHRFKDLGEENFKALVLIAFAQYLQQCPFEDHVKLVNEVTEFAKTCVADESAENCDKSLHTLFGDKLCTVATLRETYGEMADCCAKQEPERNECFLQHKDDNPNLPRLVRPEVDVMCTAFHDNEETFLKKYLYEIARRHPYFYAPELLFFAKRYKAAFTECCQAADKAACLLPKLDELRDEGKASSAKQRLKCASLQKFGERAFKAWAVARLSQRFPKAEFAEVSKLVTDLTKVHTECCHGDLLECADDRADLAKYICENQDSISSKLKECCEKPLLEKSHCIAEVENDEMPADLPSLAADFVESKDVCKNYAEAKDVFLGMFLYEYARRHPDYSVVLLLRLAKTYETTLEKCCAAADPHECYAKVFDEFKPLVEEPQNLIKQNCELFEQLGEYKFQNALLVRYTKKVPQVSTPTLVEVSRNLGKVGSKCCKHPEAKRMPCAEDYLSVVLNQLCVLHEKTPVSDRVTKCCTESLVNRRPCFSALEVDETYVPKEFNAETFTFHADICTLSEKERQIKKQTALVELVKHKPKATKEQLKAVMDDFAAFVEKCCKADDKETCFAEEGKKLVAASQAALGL

CC(C)(C)[Si](F)(c1cc(CNC(=O)[C@@H](N)CCC(=O)O)cc(C(=O)NCC(=O)N[C@@H](Cc2ccc(O)cc2)C(=O)O)c1)C(C)(C)C [3X3, (S)-4-amino-5-((3-((2-(((S)-1-carboxy-2-(4-hydroxyphenyl)-ethyl)amino)-2-oxoethyl)carbamoyl)-5-(di-tert-butylfluorosilyl)-benzyl)amino)-5-oxopentanoic acid]
half-life [1, 5]: 42 ± 7.8 h
half-life [2, 6]: 57 ± 1.6 min
half-life [3, 7]: 29 ± 0.8 min

C[C@@H](O)[C@H](NC(=O)[C@@H]1CSSC[C@H](NC(=O)[C@@H](Cc2ccccc2)NC(=O)CN2CCN(CC(=O)O)CCN(CC(=O)NC[C@@H](NC(=O)c3cc(CN)cc([Si](F)(C(C)(C)C)C(C)(C)C)c3)C(=O)O)CCN(CC(=O)O)CC2)C(=O)N[C@@H](Cc2ccc(O)cc2)C(=O)N[C@H](Cc2c[nH]c3ccccc23)C(=O)N[C@@H](CCCCN)C(=O)N[C@@H]([C@@H](C)O)C(=O)N1)C(=O)O [[natGa]Ga-(SiFA)SeFe-rhTATE1, metal not drawn]
HSA binding (HPAC) (human serum albumin): 99%
HSA binding (HPAC) (human serum albumin; listed as [^natGa]Ga-(SiFA)SeFe-rhTATE1): 98−99%

CC(C)(C)[Si](F)(c1cc(CN)cc(C(=O)NCC(=O)N[C@@H](CC(=O)O)C(=O)O)c1)C(C)(C)C [1X2, (3-(aminomethyl)-5-(di-tert-butylfluorosilyl)benzoyl)glycyl-L-as-partic acid]
half-life [1]: 37 ± 11 h
half-life [2]: 25 ± 6.1 min
half-life [3]: 299 ± 12 min

CC(C)(C)[Si](F)(c1cc(CNC(=O)[C@@H](N)CCC(=O)O)cc(C(=O)NCC(=O)N[C@@H](CC(=O)O)C(=O)O)c1)C(C)(C)C [3X2, (3-(((S)-2-amino-4-carboxybutanamido)methyl)-5-(di-tert-butylfluorosilyl)benzoyl)glycyl-L-aspartic acid]
half-life [1, 5]: 59 ± 5.2 h
half-life [2, 6]: 90 ± 3.6 min
half-life [3, 7]: 597 ± 43 min

C[C@@H](O)[C@H](NC(=O)[C@@H]1CSSC[C@H](NC(=O)[C@@H](Cc2ccccc2)NC(=O)COCCOCCNC(=O)[C@@H](CNC(=O)CN2CCN(CC(=O)O)CCN(CC(=O)O)CCN(CC(=O)O)CC2)NC(=O)COCCOCCNC(=O)c2ccc([Si](F)(C(C)(C)C)C(C)(C)C)cc2)C(=O)N[C@@H](Cc2ccc(O)cc2)C(=O)N[C@H](Cc2c[nH]c3ccccc23)C(=O)N[C@@H](CCCCN)C(=O)N[C@@H]([C@@H](C)O)C(=O)N1)C(=O)O [[177Lu]Lu-(SiFA)BA-rhTATE3, metal not drawn]
Intact tracer in human serum, 24 h [4]: 60 ± 1.0%
remaining at 24 h, 25 MBq/mL [4]: 60%

C[C@@H](O)[C@H](NC(=O)[C@@H]1CSSC[C@H](NC(=O)[C@@H](Cc2ccccc2)NC(=O)COCCOCCNC(=O)[C@@H](CNC(=O)CN2CCN(CC(=O)O)CCN(CC(=O)O)CCN(CC(=O)O)CC2)NC(=O)COCCOCCNC(=O)c2cc(CN)cc([Si](F)(C(C)(C)C)C(C)(C)C)c2)C(=O)N[C@@H](Cc2ccc(O)cc2)C(=O)N[C@H](Cc2c[nH]c3ccccc23)C(=O)N[C@@H](CCCCN)C(=O)N[C@@H]([C@@H](C)O)C(=O)N1)C(=O)O [[177Lu]Lu-(SiFA)SeFe-rhTATE3, metal not drawn]
Intact tracer in human serum, 24 h [4]: 94 ± 3.0%
remaining at 24 h, 25 MBq/mL [4]: 94%

CC(=O)N[C@@H]1[C@@H](O)[C@H](O)[C@@H](CO)O[C@H]1NC(=O)C[C@H](NC(=O)CON=CCCC[N+](C)(C)Cc1ccc([Si](F)(C(C)(C)C)C(C)(C)C)cc1)C(=O)N[C@@H](CC(=O)O)C(=O)N[C@@H](CC(=O)O)C(=O)NCCOCCOCC(=O)N[C@H](Cc1ccccc1)C(=O)N[C@H]1CSSC[C@@H](C(=O)N[C@H](C(=O)O)[C@@H](C)O)NC(=O)[C@H]([C@@H](C)O)NC(=O)[C@H](CCCCN)NC(=O)[C@@H](Cc2c[nH]c3ccccc23)NC(=O)[C@H](Cc2ccc(O)cc2)NC1=O [SiFAlin-TATE, reference compound]
HSA binding (HPAC) (human serum albumin): 92%

CC(C)(C)[Si](F)(c1cc(CNC(=O)[C@@H](N)CCCCN)cc(C(=O)NCC(=O)N[C@@H](CC(=O)O)C(=O)O)c1)C(C)(C)C [2X2, (3-(di-tert-butylfluorosilyl)-5-(((S)-2,6-diaminohexanamido)-methyl)benzoyl)glycyl-L-aspartic acid]
half-life [1, 5]: 49 ± 7.1 h
half-life [2, 6]: 29 ± 0.8 min
half-life [3, 7]: 43 ± 1.3 min

CC(C)(C)[Si](F)(c1cc(CN)cc(C(=O)NCC(=O)N[C@@H](Cc2ccc(O)cc2)C(=O)O)c1)C(C)(C)C [1X3, (3-(aminomethyl)-5-(di-tert-butylfluorosilyl)benzoyl)glycyl-L-tyrosine]
half-life [1]: 43 ± 2.8 h
half-life [2]: 27 ± 2.2 min
half-life [3]: 14 ± 3 min

CC(C)(C)[Si](F)(c1cc(CNC(=O)[C@@H](N)CCC(=O)O)cc(C(=O)NCC(=O)N[C@@H](CCCCN)C(=O)O)c1)C(C)(C)C [3X1, (3-(((S)-2-amino-4-carboxybutanamido)methyl)-5-(di-tert-butylfluorosilyl)benzoyl)glycyl-L-lysine]
half-life [1, 5]: 40 ± 0.6 h
half-life [2, 6]: 34 ± 2.1 min
half-life [3, 7]: 57 ± 1.3 min

CC(C)(C)[Si](F)(c1cc(CN)cc(C(=O)NCC(=O)N[C@@H](CCCCN)C(=O)O)c1)C(C)(C)C [1X1, (3-(aminomethyl)-5-(di-tert-butylfluorosilyl)benzoyl)glycyl-L-lysine]
half-life [1]: 38 ± 0.9 h
half-life [2]: 10 ± 1.1 min
half-life [3]: 27 ± 2.1 min

CC(C)(C)[Si](F)(c1cc(CNC(=O)[C@@H](N)CCCCN)cc(C(=O)NCC(=O)N[C@@H](Cc2ccc(O)cc2)C(=O)O)c1)C(C)(C)C [2X3, (3-(di-tert-butylfluorosilyl)-5-(((S)-2,6-diaminohexanamido)-methyl)benzoyl)glycyl-L-tyrosine]
half-life [1, 5]: 48 ± 13 h
half-life [2, 6]: 20 ± 2.9 min
half-life [3, 7]: 21 ± 6 min

CC(C)(C)[Si](F)(c1cc(CNC(=O)[C@@H](N)CCCCN)cc(C(=O)NCC(=O)N[C@@H](CCCCN)C(=O)O)c1)C(C)(C)C [2X1, (3-(di-tert-butylfluorosilyl)-5-(((S)-2,6-diaminohexanamido)-methyl)benzoyl)glycyl-L-lysine]
half-life [1, 5]: 25 ± 5.5 h
half-life [2, 6]: 14 ± 0.8 min
half-life [3, 7]: 18 ± 2.1 min

C[C@@H](O)[C@H](NC(=O)[C@@H]1CSSC[C@H](NC(=O)[C@@H](Cc2ccccc2)NC(=O)COCCOCCNC(=O)[C@@H](CNC(=O)CN2CCN(CC(=O)O)CCN(CC(=O)O)CCN(CC(=O)O)CC2)NC(=O)COCCOCCNC(=O)c2cc(CN)cc([Si](F)(C(C)(C)C)C(C)(C)C)c2)C(=O)N[C@@H](Cc2ccc(O)cc2)C(=O)N[C@H](Cc2c[nH]c3ccccc23)C(=O)N[C@@H](CCCCN)C(=O)N[C@@H]([C@@H](C)O)C(=O)N1)C(=O)O [[natLu]Lu-(SiFA)SeFe-rhTATE3, metal not drawn]
HSA binding (HPAC) (human serum albumin): 98%
HSA binding (HPAC) (human serum albumin; listed as [^natLu]Lu-(SiFA)SeFe-rhTATE3): 98−99%

C[C@@H](O)[C@H](NC(=O)[C@@H]1CSSC[C@H](NC(=O)[C@@H](Cc2ccccc2)NC(=O)CN2CCN(CC(=O)O)CCN(CC(=O)NC[C@@H](NC(=O)c3cc(CNC(=O)C[C@@H](N)C(=O)O)cc([Si](F)(C(C)(C)C)C(C)(C)C)c3)C(=O)O)CCN(CC(=O)O)CC2)C(=O)N[C@@H](Cc2ccc(O)cc2)C(=O)N[C@H](Cc2c[nH]c3ccccc23)C(=O)N[C@@H](CCCCN)C(=O)N[C@@H]([C@@H](C)O)C(=O)N1)C(=O)O [[natGa]Ga-(SiFA)SeFe-rhTATE2, metal not drawn]
HSA binding (HPAC) (human serum albumin): 99%
HSA binding (HPAC) (human serum albumin; listed as [^natGa]Ga-(SiFA)SeFe-rhTATE2): 98−99%
